{
  "source": "patent US8211933B2",
  "about": "“3.3.0 bicyclic GlyT1 inhibitors and methods of making and using same” (Vanderbilt University, priority 2008, dated 2012)",
  "data": [
    {"molecular_target": "T1, GlyT1 (Homo sapiens, UniProt P48067)", "T1 construct": "Human placental choriocarcinoma cells endogenously expressing GlyT1 can be cultured using standard conditions; host or cells: JAR human placental choriocarcinoma cells", "T1 sequence (P48067 1-706)": "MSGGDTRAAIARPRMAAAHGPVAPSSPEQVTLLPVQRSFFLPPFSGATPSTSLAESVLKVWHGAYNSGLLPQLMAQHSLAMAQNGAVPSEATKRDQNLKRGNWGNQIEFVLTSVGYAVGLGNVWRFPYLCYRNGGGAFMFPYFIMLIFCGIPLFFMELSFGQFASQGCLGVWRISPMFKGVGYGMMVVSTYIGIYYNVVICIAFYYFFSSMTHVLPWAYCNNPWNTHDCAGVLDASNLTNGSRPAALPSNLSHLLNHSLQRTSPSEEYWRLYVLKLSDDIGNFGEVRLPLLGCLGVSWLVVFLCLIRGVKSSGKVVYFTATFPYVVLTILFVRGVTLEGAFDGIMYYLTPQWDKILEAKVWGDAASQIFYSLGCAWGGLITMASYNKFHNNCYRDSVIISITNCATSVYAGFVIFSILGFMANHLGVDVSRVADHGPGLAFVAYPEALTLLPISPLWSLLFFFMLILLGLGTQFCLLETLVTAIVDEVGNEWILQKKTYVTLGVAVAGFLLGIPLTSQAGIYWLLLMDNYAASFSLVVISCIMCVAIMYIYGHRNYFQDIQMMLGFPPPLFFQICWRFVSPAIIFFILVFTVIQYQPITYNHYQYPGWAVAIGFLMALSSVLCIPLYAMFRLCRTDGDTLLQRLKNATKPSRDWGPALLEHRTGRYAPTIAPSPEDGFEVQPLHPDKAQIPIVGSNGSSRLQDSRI", "test": "[14C]-glycine uptake in JAR cells endogenously expressing GlyT1 (Cytostar T scintillation proximity)", "type": "cell-based", "settings": "inhibition of [14C]-glycine uptake (10 μM), JAR cells, 3 h; read-out: Potency (IC50)", "protocol": "(§1) Human placental choriocarcinoma cells endogenously expressing GlyT1 can be cultured using standard conditions. Cells can then be grown at 37° C. in a humidified atmosphere 40-48 hours before the assay. Culture medium can be removed from the culture plate, and cells can be incubated with an amount of TBlA buffer with or without the compounds of the present invention for a sufficient period of time. Then an amount of [^14C]-glycine diluted with TBlA can be added to each well. After incubation the microplates can be sealed and counted. Non-specific uptake of [^14C]-glycine can be determined in the presence of unlabeled glycine. To determine potencies, a range of concentrations of the compounds of the present invention can be added to the cells, followed by the fixed concentration of [^14C]-glycine. The concentration of the present compound that inhibited half of the specific uptake of [^14C]glycine (IC50 value) can be determined from the assay data by non-linear curve fitting.\n(§2) The procedure used was analogous to that disclosed in Williams, J. B.; Mallorga P. J.; Lemaire W.; Williams D. L.; Na S.; Patel S.; Conn J. P.; Pettibone D. J.; Austin C.; Sur C.; “Development of a scintillation proximity assay for analysis of Na+/Cl−-dependent neurotransmitter transporter activity,” ANAL. BIOCHEM.\n(§3) Cells were plated at a density of 1.3×10^4 cells/well and grown at 37° C. in a humidified atmosphere of 5% CO2 for 40-48 h. Culture medium was removed from the Cytostar T plate and JAR cells were incubated with 30 μl A of TBlA buffer (120 mM NaC1, 2 mM KCl, 1 mM CaCl2, 1 mM MgCl2, 10 mM Hepes, 5 mM L-alanine, pH 7.5 adjusted with 1 M Tris base) with or without multiple concentrations of test compound (added at 2× final concentration) for 1 min. Then 30 μl of [^14C]-glycine (Perkin-Elmer) diluted in TBlA was added to each well to give a final concentration of 10 μM. Cytostar T plates were then incubated in the dark at room temperature for 3 h, sealed with opaque white bottom plate seals (Perkin-Elmer) and clear top plate seals (Topseal A, Perkin-Elmer), and were counted on a Top Count (Packard). Glycine uptake was determined by measuring radioactivity in each well and plotted as a function of concentration of test compound. […] Nonspecific uptake of [^14C]-glycine was determined in the presence of 10 mM cold glycine. [^14C]-taurine (American Radiolabeled Chemicals, Inc.) uptake experiments were performed according to the same protocol except that 10 mM cold taurine was used to determine nonspecific uptake. […] COS-7 cells were transiently transfected with the human GlyT2 cDNA (Origene Technologies Inc., SC303452) using Fugene 6 (Roche) according to the manufacturer's instructions in Dulbecco's modified Eagle's medium (DMEM, Invitrogen) containing 10% Fetal Bovine Serum, 10 mM HEPES, 1 mM sodium pyruvate, penicillin (100 μg/ml), and streptomycin (100 μg/ml). The following day, the cells were plated at a density of 5×10^5 cells/well in Cytostar T plates and maintained at 37° C. in a humidified atmosphere of 5% CO2 for 24 h. GlyT2 glycine uptake experiments were performed according to the same protocol previously described.", "units": {"IC50": "nM"}, "values": [
      {"smiles": "Cn1cnc(S(=O)(=O)N2CC3CCC(NC(=O)c4ccc(F)c(F)c4)C3C2)c1", "note": "(centres unmarked) [Compound 7j, 3,4-difluoro-N-(2-(1-methyl-1H-imidazol-4-ylsulfonyl)octahydrocyclopenta[c]pyrrol-4-yl)benzamide]", "IC50": 903}
    ]},
    {"molecular_target": "T1, GlyT1", "test": "[14C]-glycine uptake in JAR cells endogenously expressing GlyT1 (Cytostar T scintillation proximity)", "type": "cell-based", "settings": "read-out: Potency (IC50)", "protocol": "as §1, §2, §3", "units": {"IC50": "nM"}, "values": [
      {"smiles": "Cn1cnc(S(=O)(=O)N2CC3CCC(NC(=O)c4ccccc4Cl)C3C2)c1", "note": "(centres unmarked) [Compound 7b, 2-chloro-N-(2-(1-methyl-1H-imidazol-4-ylsulfonyl)octahydrocyclopenta[c]pyrrol-4-yl)benzamide]", "IC50": 101},
      {"smiles": "Cn1cnc(S(=O)(=O)N2CC3CCC(NC(=O)c4ccc(Cl)cc4)C3C2)c1", "note": "(centres unmarked) [Compound 7c, 4-chloro-N-(2-(1-methyl-1H-imidazol-4-ylsulfonyl)octahydrocyclopenta[c]pyrrol-4-yl)benzamide]", "IC50": 1030},
      {"smiles": "Cn1cnc(S(=O)(=O)N2CC3CCC(NC(=O)c4ccccc4C(F)(F)F)C3C2)c1", "note": "(centres unmarked) [Compound 7d, N-(2-(1-methyl-1H-imidazol-4-ylsulfonyl)octahydrocyclopenta[c]pyrrol-4-y1)-2-(trifluoromethyl)benzamide]", "IC50": 78},
      {"smiles": "Cn1cnc(S(=O)(=O)N2CC3CCC(NC(=O)c4ccc(F)cc4F)C3C2)c1", "note": "(centres unmarked) [Compound 7e, 2,4-difluoro-N-(2-(1-methy1-1H-imidazol-4-ylsulfonyl)octahydrocyclopenta[c]pyrrol-4-yl)benzamide]", "IC50": 925},
      {"smiles": "Cn1cnc(S(=O)(=O)N2CC3CCC(NC(=O)c4ccccc4F)C3C2)c1", "note": "(centres unmarked) [Compound 7f, 2-fluoro-N-(2-(1-methyl-1H-imidazol-4-ylsulfonyl)octahydrocyclopenta[c]pyrrol-4-yl)benzamide]", "IC50": 1800},
      {"smiles": "Cn1cnc(S(=O)(=O)N2CC3CCC(NC(=O)c4ccc(Cl)c(Cl)c4)C3C2)c1", "note": "(centres unmarked) [Compound 7g, 3,4-dichloro-N-(2-(1-methyl-1H-imidazol-4-ylsulfonyl)octahydrocyclopenta[c]pyrrol-4-yl)benzamide]", "IC50": 891},
      {"smiles": "Cn1cnc(S(=O)(=O)N2CC3CCC(NC(=O)c4ccc(F)cc4)C3C2)c1", "note": "(centres unmarked) [Compound 7h, 4-fluoro-N-(2-(1-methyl-1H-imidazol-4-ylsulfonyl)octahydrocyclopenta[c]pyrrol-4-yl)benzamide]", "IC50": 2200},
      {"smiles": "Cn1cnc(S(=O)(=O)N2CC3CCC(NC(=O)c4c(F)cccc4F)C3C2)c1", "note": "(centres unmarked) [Compound 7i, 2,6-difluoro-N-(2-(1-methy1-1H-imidazol-4-ylsulfonyl)octahydrocyclopenta[c]pyrrol-4-yl)benzamide]", "IC50": 630},
      {"smiles": "CCCS(=O)(=O)N1CC2CCC(NC(=O)c3ccc(Cl)cc3Cl)C2C1", "note": "(centres unmarked) [Compound 71, 2,4-dichloro-N-(2-(propylsulfonyl)octahydrocyclopenta[c]pyrrol-4-yl)benzamide]", "IC50": 7000}
    ]},
    {"molecular_target": "T1, GlyT1", "test": "[14C]-glycine uptake in JAR cells endogenously expressing GlyT1 (Cytostar T scintillation proximity)", "type": "cell-based", "settings": "result in words; inhibition of [14C]-glycine uptake (10 μM), JAR cells, 3 h", "protocol": "as §1, §2, §3", "values": [
      {"smiles": "Cn1cnc(S(=O)(=O)N2CC3CCC(NC(=O)c4ccc(Cl)cc4Cl)C3C2)c1", "note": "(centres unmarked) [Compound 5b, 2,4-dichloro-N-(2-(1-methyl-1H-imidazol-4-ylsulfonyl)octahydrocyclopenta[c]pyrrol-4-yl)benzamide]", "Potency (IC50)": "Inactive"}
    ]}
  ]
}
